Assay: HPLC chromatograms of agent from patch and from gamma sterilized patch
Assay type: physicochemical
Excerpt: FIGS. 9A, 9B, and 9C are graphs showing that agent(s) included within a patch, according to embodiments of the present invention, are not modified when incorporated into the patch or when the patch is sterilized. FIG. 9A is a graph showing a high-performance liquid chromatography (H PLC) chromatogram of a cisplatin standard. FIG. 9B is a graph showing an HPLC chromatogram of a patch, which illustrates that the cisplatin was not modified.
The patch is sterilized prior to application to a surgical cavity, for example after the patch is manufactured and before packaging. In some embodiments, gamma sterilization is employed to sterilize the patch. FIGS. 9A-9C show HPLC chromatograms at various stages of product synthesis. The HPLC apparatus was an Agilent 1100 Series HPLC using a water/methanol/sodium lauryl sulfate solvent mixture adjusted to pH 2.5 with trifluoromethanesulfonic acid. FIG. 9A is an HPLC chromatogram of a cisplatin standard. FIG. 9B is an HPLC chromatogram of a cisplatin sample taken from a patch that was dissolved in a solution, which illustrates that the cisplatin was not modified while in the patch. […] Similar experiments were conducted using oxaliplatin and 5-fluorouracil. This experiment proves that the patches are able to be manufactured and sterilized while maintaining the integrity of the agent(s) included within.

Structure (SMILES): N.N.[Cl][Pt][Cl] [cisplatin]
- integrity of agent after gamma ray sterilization of patch (HPLC) (gamma ray sterilization for 25 minutes): not modified
- integrity of agent while in the patch (HPLC) (sample taken from a patch dissolved in a solution): not modified

Source: patent US20250275929A1, “INTRAOPERATIVE TOPICALLY-APPLIED NON-IMPLANTABLE RAPID RELEASE PATCH” (PRIVO TECHNOLOGIES, INC., priority 2017, published 2025)
